Laboratory results taken from PMC11288129, “Diversely evolved xibalbin variants from remipede venom inhibit potassium channels and activate PKA-II and Erk1/2 signaling” (BMC Biology, 2024).
Positions of bridges follow the written chain, without caps; N, C: chain ends. No end group written: not given here.

Experiments:
[1] = system: hCav3.3; assay: TEVC inhibition, Cav3.3; type: cell-based, human; design: unit not given here; conditions: 1 µM
From the text: (§1) For the expression of Kv channels rat Kv1.1 (GenBank accession number: NM_173095 [88, 89]), rKv1.2 (NM_012970 [90, 91]), human Kv1.3 (NM_002232 [92, 93]), rKv1.4 (NM_012971 [94, 95]), rKv1.6 (NM_023954 [96, 97]), hKv2.1 (NM_004975 [98, 99]), hKv3.1 (NM_004976 [100, 101]), rKv4.2 (NM_031739 [102, 103]), hKv10.1 (NM_172362 [104, 105]), hERG1 [Kv11.1, (NM_000238 [106, 107])], and Shaker IR [from Drosophila melanogaster, (NM_167595 [108, 109])], Nav channels [rNav1.2 (NM_012647 [42, 110]), rNav1.4 (NM_013178 [111, 112]), hNav1.5 (NM_198056 [113, 114]), mNav1.6 (NM_001077499 [115, 116]), BgNav [from Blattella germanica, (DQ466887 [117, 118])] and the auxiliary subunits rβ1 (NM_001271045 [119, 120]), hβ1 (NM_001037 [121, 122]), and TipE [from D. melanogaster, (NM_079196 [109, 123])], and Cav channels hCav3.1 [124, 125], hCav3.2 [126, 127], and hCav3.3 [128, 129] in Xenopus oocytes, the linearized plasmids were transcribed using the T7 or SP6 mMESSAGEmMACHINE transcription kit (Ambion, Austin, TX, USA). Mature female animals were purchased from Nasco (Fort Atkinson, USA) and were housed in the Aquatic Facility (KU Leuven) in compliance with the regulations of the European Union (EU) concerning the welfare of laboratory animals as declared in Directive 2010/63/EU. The use of X. laevis oocytes was approved by the Animal Ethics Committee of the KU Leuven with the license number P186/2019. Stage V–VI oocytes were collected from anesthetized female X. laevis frog as previously described, with the frogs anesthetized by placement in 0.1% tricaine solution (amino benzoic acid ethyl ester; Merck, USA). Oocyte microinjection was performed using a microinjector (Drummond Scientifc®, USA), with a programmed cRNA injection volume of 4—50 nL, depending on the channel subtype. The oocytes were incubated in ND96 solution (96 mM NaCl, 2 mM KCl, 1.8 mM CaCl2, 2 mM MgCl2, and 5 mM HEPES, pH 7.4), supplemented with 50 mg/l gentamicin sulfate.
(§2) Electrophysiological measurements were performed at room temperature (18–22 °C) using the two-electrode voltage clamp (TEVC) technique. Data were obtained using a GeneClamp 500 amplifier (Axon Instruments, USA), and Clampex9 software (Axon Instruments), responsible for data acquisition and storage. Glass micropipettes were produced using glass capillaries (borosilicate WPI 1B120-6) and drawn in a WPI (World Precision Instruments, USA) manual stretcher. The bath and perfusion solutions were either the previously described ND96 (Nav and Kv channels) or calcium-free ND96 supplemented with 10 mM BaCl2 (Cav channels).
(§3) Whole-cell currents of oocytes were recorded 1 to 3 days after injection. Current and voltage electrodes were filled with 3 M KCl and their resistance was adjusted from 0.7 to 2.0 MΩ. Currents were sampled at 20 kHz (Nav channels) and 10 kHz (Kv and Cav channels) and filtered using a four-pole Bessel low-pass Bessel filter, at 1 kHz for sodium, and […] for potassium and calcium, except for the hERG ion channel, in which the currents were filtered at 1 kHz. Leak subtraction was performed using a -P/4 protocol. Kv1.x currents were evoked by 500 ms depolarizations to 0 mV followed by a 500-ms pulse to − 50 mV, from a holding potential of − 90 mV. Kv2.1, Kv3.1, and Kv4.2 currents were elicited by 500 ms pulses to + 20 mV from a holding potential of − 90 mV. Current traces of Kv10.1 were elicited by 2 s depolarization to 0 mV, from a holding potential of − 90 mV. Current traces of hERG1 channel were elicited by applying a + 40 mV prepulse for 2 s followed by a step of − 120 mV for 2 s. Sodium current traces were evoked by a 100 ms depolarization to 0 mV, from a holding potential of − 90 mV. The current–voltage (IV) relationships were determined by 100-ms step depolarizations between − 90 and + 40 mV, using 5 mV increments. […]

[2] = system: rNav1.2; assay: TEVC current-voltage relationship (Vhalf), Nav1.2; type: cell-based, rat; design: Vhalf, toxin inactivation, Nav1.2 / Vhalf, toxin activation, Nav1.2: unit not given here; conditions: for Vhalf, toxin activation, Nav1.2 / Vhalf, toxin inactivation, Nav1.2: 1 µM
From the text: as §1, §2, §3

[3] = system: mNav1.6; assay: TEVC current-voltage relationship (Vhalf), Nav1.6; type: cell-based, mouse; design: Vhalf, toxin inactivation, Nav1.6 / Vhalf, toxin activation, Nav1.6: unit not given here; conditions: for Vhalf activation shift, Nav1.6: 1 µM versus control (ND96); for Vhalf, toxin activation, Nav1.6 / Vhalf, toxin inactivation, Nav1.6: 1 µM
From the text: as §1, §2, §3

| Sequence | Inhibition data, Cav3.3 ([1]; replicate 1) | Inhibition data, Cav3.3 ([1]; replicate 2) | Inhibition data, Cav3.3 ([1]; replicate 3) | Inhibition data, Cav3.3 ([1]; replicate 4) | Vhalf, toxin activation, Nav1.2 ([2]; replicate 1) | Vhalf, toxin inactivation, Nav1.2 ([2]; replicate 1) | Vhalf, toxin activation, Nav1.2 ([2]; replicate 2) | Vhalf, toxin inactivation, Nav1.2 ([2]; replicate 2) | Vhalf, toxin activation, Nav1.2 ([2]; replicate 3) | Vhalf, toxin inactivation, Nav1.2 ([2]; replicate 3) | Vhalf, toxin activation, Nav1.2 ([2]; replicate 4) | Vhalf, toxin inactivation, Nav1.2 ([2]; replicate 4) | Vhalf activation shift, Nav1.6 [3] [mV] | Vhalf, toxin activation, Nav1.6 ([3]; replicate 1) | Vhalf, toxin inactivation, Nav1.6 ([3]; replicate 1) | Vhalf, toxin activation, Nav1.6 ([3]; replicate 2) | Vhalf, toxin inactivation, Nav1.6 ([3]; replicate 2) | Vhalf, toxin activation, Nav1.6 ([3]; replicate 3) | Vhalf, toxin inactivation, Nav1.6 ([3]; replicate 3) | Vhalf, toxin activation, Nav1.6 ([3]; replicate 4) | other results |
| --- | --- | --- | --- | --- | --- | --- | --- | --- | --- | --- | --- | --- | --- | --- | --- | --- | --- | --- | --- | --- | --- |
| KRSCIRRFGRCDHRPNDCCYNSSCRCNLWGSNCRCQRMGLFQKWGK (disulfide 4-19, 11-24, 18-35, 26-33) [xib13] | 0.0 | 0.0 | 0.0 | 0.0 | -21.2222 | -50.4402 | -22.3496 | -54.6262 | -23.8888 | -52.3347 | -19.606 | -52.7049 | 0.5 | -22.599 | -56.1011 | -28.3204 | -61.4261 | -27.6893 | -56.3883 | -20.1785 | Vhalf activation shift, Nav1.2 ([2]; 1 µM versus control (ND96)): 1.5 mV; Vhalf, toxin inactivation, Nav1.6 ([3]; replicate 4): -49.5801 |
| RLFCIRHHKYCGHRPKRCCSGLFCRCNTFGTNCRCQSKGALGKLI (disulfide 4-19, 11-24, 18-35, 26-33) [xib1] | 0.0 | 0.0 | 0.0 | 0.0 | -16.7542 | -48.4729 | -15.666 | -54.2238 | -21.743 | -57.3333 | -24.4632 | -61.3134 | 1.9 | -19.6324 | -54.1984 | -25.3795 | -54.8159 | -25.7195 | -56.7966 | -23.7149 | Vhalf, toxin inactivation, Nav1.6 ([3]; replicate 4): -53.558 |
